Laboratory results from ChEMBL document CHEMBL4177529, “Penicilones A-D, Anti-MRSA Azaphilones from the Marine-Derived Fungus Penicillium janthinellum HK1-6” (2017).
Values after ≈ are worked out from the molar mass of the structure shown.

Legend:
Escherichia coli = experiment: Antibacterial activity against Escherichia coli ATCC 25922 by XTT assay; format: functional
Staphylococcus aureus [1] = experiment: Antibacterial activity against methicillin-susceptible Staphylococcus aureus ATCC 25923 by XTT assay
Staphylococcus aureus [2] = experiment: Antibacterial activity against methicillin-resistant Staphylococcus aureus ATCC 33591 by XTT assay
Enterococcus faecium = experiment: Antibacterial activity against vancomycin-susceptible Enterococcus faecium ATCC 35667 by XTT assay
Staphylococcus aureus [3] = experiment: Antibacterial activity against methicillin-susceptible Staphylococcus aureus ATCC 29213 by XTT assay
Staphylococcus aureus [4] = experiment: Antibacterial activity against methicillin-resistant Staphylococcus aureus ATCC 43300 by XTT assay
Enterococcus faecalis = experiment: microbe, parasite or virus in culture; format: functional; conditions: ATCC 51299
Description: Antibacterial activity against vancomycin-susceptible Enterococcus faecalis ATCC 51299 by XTT assay

Compound	MIC (Escherichia coli)	MIC (Staphylococcus aureus [1])	MIC (Staphylococcus aureus [2])	MIC (Enterococcus faecium)	MIC (Staphylococcus aureus [3])	MIC (Staphylococcus aureus [4])	MIC (Enterococcus faecalis)
Cc1cccc(O)c1C1=CC2=CC(=O)[C@](C)(O)C(=O)C2=CO1	> 50 µg/mL	> 50 µg/mL	> 50 µg/mL	> 50 µg/mL	> 50 µg/mL	> 50 µg/mL	> 50 µg/mL
CCCCCCC(C)/C=C(\C)C(=O)O[C@@]1(C)C(=O)C2=COC(C3=C(C)CC(O)CC3=O)=CC2=C(Cl)C1=O (stereo partly specified)	> 50 µg/mL	12.5 µg/mL (≈ 23.5 µM)	6.25 µg/mL (≈ 11.8 µM)	12.5 µg/mL (≈ 23.5 µM)	6.25 µg/mL (≈ 11.8 µM)	6.25 µg/mL (≈ 11.8 µM)	12.5 µg/mL (≈ 23.5 µM)
Cc1cccc(O)c1C1=CC2=C(Cl)C(=O)[C@@](C)(O)C(=O)C2=CO1	> 50 µg/mL	25 µg/mL (≈ 75.1 µM)	50 µg/mL (≈ 150 µM)	50 µg/mL (≈ 150 µM)	> 50 µg/mL	> 50 µg/mL	50 µg/mL (≈ 150 µM)
CCCCCCC(C)/C=C(\C)C(=O)O[C@@]1(C)C(=O)C=C2C=C(C3=C(C)C[C@@H](O)CC3=O)OC=C2C1=O (stereo partly specified)	> 50 µg/mL	> 50 µg/mL	> 50 µg/mL	> 50 µg/mL	> 50 µg/mL	> 50 µg/mL	> 50 µg/mL
CCCCCCC(C)/C=C(\C)C(=O)O[C@@]1(C)C(=O)C=C2C=C(c3c(C)cccc3O)OC=C2C1=O (stereo partly specified)	> 50 µg/mL	3.13 µg/mL (≈ 6.54 µM)	3.13 µg/mL (≈ 6.54 µM)	3.13 µg/mL (≈ 6.54 µM)	3.13 µg/mL (≈ 6.54 µM)	3.13 µg/mL (≈ 6.54 µM)	3.13 µg/mL (≈ 6.54 µM)
CCCCCCC(C)/C=C(\C)C(=O)O[C@@]1(C)C(=O)C2=COC(c3c(C)cccc3O)=CC2=C(Cl)C1=O (stereo partly specified)	> 50 µg/mL	12.5 µg/mL (≈ 24.4 µM)	6.25 µg/mL (≈ 12.2 µM)	12.5 µg/mL (≈ 24.4 µM)	3.13 µg/mL (≈ 6.1 µM)	6.25 µg/mL (≈ 12.2 µM)	6.25 µg/mL (≈ 12.2 µM)
Cc1onc(-c2ccccc2)c1C(=O)N[C@@H]1C(=O)N2[C@@H]1SC(C)(C)[C@@H]2C(=O)[O-].[Na+]	> 100 µg/mL	0.78 µg/mL	> 100 µg/mL	> 100 µg/mL	3.13 µg/mL	> 100 µg/mL	50 µg/mL
CN[C@H](CC(C)C)C(=O)N[C@H]1C(=O)N[C@@H](CC(N)=O)C(=O)N[C@H]2C(=O)N[C@H]3C(=O)N[C@H](C(=O)N[C@H](C(=O)O)c4cc(O)cc(O)c4-c4cc3ccc4O)[C@H](O)c3ccc(c(Cl)c3)Oc3cc2cc(c3O[C@@H]2O[C@H](CO)[C@@H](O)[C@H](O)[C@H]2O[C@H]2C[C@](C)(N)[C@H](O)[C@H](C)O2)Oc2ccc(cc2Cl)[C@H]1O.Cl [VANCOMYCIN HYDROCHLORIDE]	> 100 µg/mL	1.56 µg/mL	0.78 µg/mL	0.39 µg/mL	0.39 µg/mL	0.39 µg/mL	6.25 µg/mL
